Key:
[1] = method code SF-HPLC, from DOI: 10.1016/s0021-9673(01)84554-4; conditions: for logD: pH 7.4

logD [1]	SMILES	further results
3.66	CC1CC2C3CCC4=CC(=O)C=CC4(C)C3(F)C(O)CC2(C)C1(O)C(=O)NCCc1ccccc1 (stereo unspecified)	–
3.28	CC1CC2C3CCC4=CC(=O)C=CC4(C)C3(F)C(O)CC2(C)C1(O)C(=O)NCc1ccccc1 (stereo unspecified)	–
1.57	CC1CC2C3CCC4=CC(=O)C=CC4(C)C3(F)C(O)CC2(C)C1(O)C(=O)NCC#N (stereo unspecified)	–
2.43	CC(C)NC(=O)C1(O)C(C)CC2C3CCC4=CC(=O)C=CC4(C)C3(F)C(O)CC21C (stereo unspecified)	–
2.07	CCNC(=O)C1(O)C(C)CC2C3CCC4=CC(=O)C=CC4(C)C3(F)C(O)CC21C (stereo unspecified)	–
3.4	COC(=O)C(Cc1ccccc1)NC(=O)C1(O)C(C)CC2C3CCC4=CC(=O)C=CC4(C)C3(F)C(O)CC21C (stereo unspecified)	–
2.89	CC1CC2C3CCC4=CC(=O)C=CC4(C)C3(F)C(O)CC2(C)C1(O)C(=O)NC(CO)c1ccccc1 (stereo unspecified)	–
1.51	CC1CC2C3CCC4=CC(=O)C=CC4(C)C3(F)C(O)CC2(C)C1(O)C(=O)NCCO (stereo unspecified)	–
3.01	CC(C)CNC(=O)C1(O)C(C)CC2C3CCC4=CC(=O)C=CC4(C)C3(F)C(O)CC21C (stereo unspecified)	–
2.73	CC1CC2C3CCC4=CC(=O)C=CC4(C)C3(F)C(O)CC2(C)C1(O)C(=O)NCCCl (stereo unspecified)	–
2	C#CCNC(=O)C1(O)C(C)CC2C3CCC4=CC(=O)C=CC4(C)C3(F)C(O)CC21C (stereo unspecified)	–
2.59	CCCNC(=O)C1(O)C(C)CC2C3CCC4=CC(=O)C=CC4(C)C3(F)C(O)CC21C (stereo unspecified)	–
1.54	CNC(=O)C1(O)C(C)CC2C3CCC4=CC(=O)C=CC4(C)C3(F)C(O)CC21C (stereo unspecified)	–

The next lines start with the compound.

SMILES	logD [1]	further results
CC1CC2C3CCC4=CC(=O)C=CC4(C)C3(F)C(O)CC2(C)C1(O)C(=O)NC(C)(C)C (stereo unspecified)	3.2	–
CC1CC2C3CCC4=CC(=O)C=CC4(C)C3(F)C(O)CC2(C)C1(O)C(=O)NCCCCCCCCN (stereo unspecified)	–	logP [1]: 3.72
CCCNCCNC(=O)C1(O)C(C)CC2C3CCC4=CC(=O)C=CC4(C)C3(F)C(O)CC21C (stereo unspecified)	–	logP [1]: 3.94
CC1CC2C3CCC4=CC(=O)C=CC4(C)C3(F)C(O)CC2(C)C1(O)C(=O)NCc1ccc([N+](=O)[O-])cc1 (stereo unspecified)	–	logP: 3.37
CCCCCNC(=O)C1(O)C(C)CC2C3CCC4=CC(=O)C=CC4(C)C3(F)C(O)CC21C (stereo unspecified)	3.64	–
CC1CC2C3CCC4=CC(=O)C=CC4(C)C3(F)C(O)CC2(C)C1(O)C(=O)NC1CCCCC1 (stereo unspecified)	3.54	–
CC1CC2C3CCC4=CC(=O)C=CC4(C)C3(F)C(O)CC2(C)C1(O)C(=O)NCCCCN (stereo unspecified)	–	logP [1]: 2.3
CC1CC2C3CCC4=CC(=O)C=CC4(C)C3(F)C(O)CC2(C)C1(O)C(=O)NCCCCCC(=O)O (stereo unspecified)	–	logP [1]: 2.29
COC(=O)CNC(=O)C1(O)C(C)CC2C3CCC4=CC(=O)C=CC4(C)C3(F)C(O)CC21C (stereo unspecified)	1.69	–
C[C@@H]1C[C@H]2[C@@H]3CCC4=CC(=O)C=C[C@]4(C)[C@@]3(F)[C@@H](O)C[C@]2(C)[C@@]1(O)C(N)=O	1.41	–
COc1ccccc1CNC(=O)C1(O)C(C)CC2C3CCC4=CC(=O)C=CC4(C)C3(F)C(O)CC21C (stereo unspecified)	–	logP: 3.09
CC(C)CCCNC(=O)C1(O)C(C)CC2C3CCC4=CC(=O)C=CC4(C)C3(F)C(O)CC21C (stereo unspecified)	3.93	–
CC1CC2C3CCC4=CC(=O)C=CC4(C)C3(F)C(O)CC2(C)C1(O)C(=O)NCCCCCCN (stereo unspecified)	–	logP [1]: 2.61
CC(C)CCNC(=O)C1(O)C(C)CC2C3CCC4=CC(=O)C=CC4(C)C3(F)C(O)CC21C (stereo unspecified)	3.74	–
CCCCNC(=O)C1(O)C(C)CC2C3CCC4=CC(=O)C=CC4(C)C3(F)C(O)CC21C (stereo unspecified)	3.1	–
COc1ccc(CNC(=O)C2(O)C(C)CC3C4CCC5=CC(=O)C=CC5(C)C4(F)C(O)CC32C)cc1 (stereo unspecified)	–	logP: 3.04
CCOC(CNC(=O)C1(O)C(C)CC2C3CCC4=CC(=O)C=CC4(C)C3(F)C(O)CC21C)OCC (stereo unspecified)	2.65	–
CCCCCCNC(=O)C1(O)C(C)CC2C3CCC4=CC(=O)C=CC4(C)C3(F)C(O)CC21C (stereo unspecified)	4.54	–
CC(C)CCCCNC(=O)C1(O)C(C)CC2C3CCC4=CC(=O)C=CC4(C)C3(F)C(O)CC21C (stereo unspecified)	–	logP: 3.91
CC1CC2C3CCC4=CC(=O)C=CC4(C)C3(F)C(O)CC2(C)C1(O)C(=O)NCCCCCCCCCN (stereo unspecified)	–	logP [1]: 4.13
CC1CC2C3CCC4=CC(=O)C=CC4(C)C3(F)C(O)CC2(C)C1(O)C(=O)NCC(=O)O (stereo unspecified)	–	logP [1]: 1.2
COc1cccc(CNC(=O)C2(O)CC3C4CCC5=CC(=O)C=CC5(C)C4(F)C(O)CC32C)c1 (stereo unspecified)	–	logP: 3.15
CC1CC2C3CCC4=CC(=O)C=CC4(C)C3(F)C(O)CC2(C)C1(O)C(=O)NCc1ccc(Cl)cc1 (stereo unspecified)	–	logP: 3.71
